In patent publication US4145444A, “Anti-inflammatory agent of benzoyl derivative” (priority 1977, dated 1979):
Where two headings read alike, the source gives them in different places.

How the values were obtained:
hind paws of male rats = experiment: Anti-inflammatory effect: acute carragheenin edema method; type: in vivo; conditions: Rattus norvegicus; for inhibition in vivo at 100 mg/kg: read-out: Anti-inf.: edema inhibition rate
Procedure: The edema was induced by subcutaneous injection of 1% carragheenin suspension in saline to the hind paws of male rats weighting 150 to 180 g. Each sample was orally given at the dosage of 100 mg/kg just before the inoculation of carragheenin.

platelet = experiment: Blood platelet aggregation inhibiting effect (collagen-induced); type: cell-based, rabbits; conditions: Oryctolagus cuniculus, Platelet; 10^-4 mole, collagen inducer, rabbit PRP; read-out: Blood platelet agg. inh.: percentage inhibition of platelet aggregation
Description: Male rabbits (Japan original white strain 3.3 to 3.6 kg) were anesthetized with Thiopental sodium and blood was sampled from the carotid artery.

in vivo = conditions: mouse, in vivo, po
Procedure: (§1) Each sample was dissolved in olive oil or dispersed in 1% Tween 20 aqueous solution.

thrombus = experiment: Inhibiting effect on thrombosis (by-pass between left juglar vein and right carotid artery, silk thread); type: in vivo, SD type male rates; conditions: Rattus norvegicus, read-out: Thrombosis inh.: thrombosis inhibition rate
In short: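 Arteriovenous shunt with silk thread and heparin saline, run as three successive 15-min circulations, with thrombus wet weight measured on the thread each time. Compound given orally in carboxymethyl cellulose suspension at 100 mg/kg 5 h before the first circulation. Inhibition rate derived against control circulations.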

male mice [1] = experiment: Analgesic effect: painful stretchings following intraperitoneal 0.7% acetic acid; conditions: Mus musculus, po, read-out: Analgesic: percentage diminition of times of painful stretching
Procedure: Each sample was orally administered in the dosage of 100 mg/kg before injection of acetic acid.

male mice [2] = experiment: in vivo; conditions: oral, male mice, within 72 hours (Table 2)
Procedure: as §1

[3] = 100 mg/kg oral, carragheenin edema, male rats (Table 2)
[4] = 100 mg/kg oral, 5 hours before first blood circulation, rats

SMILES: Cc1cc(C)c(C(=O)c2ccccc2C)c(C)c1 [Active ingredient No. 3]
- inhibition in vivo at 100 mg/kg (hind paws of male rats; [3]): 40%
- ED50 (hind paws of male rats; oral, carragheenin edema, male rats (Table 2), read-out: 50% inhibition ED50 (values in brackets)): 290 mg/kg
- inhibition at 100 µM (platelet): 17.3%
- LD50 at 72 h (in vivo): 1500 mg/kg
- inhibition in vivo at 100 mg/kg (thrombus; [4]): 38.3%
- inhibition in vivo at 100 mg/kg (male mice [1]): 11.3%

SMILES: COc1ccc(C(=O)c2ccccc2)cc1 [compound 28]
- inhibition in vivo at 100 mg/kg (hind paws of male rats; po): 44.1%
- inhibition at 100 µM (platelet): 20.4%
- Acute toxicity LD50 (male mice [2]): > 10000 mg/kg
- inhibition in vivo at 100 mg/kg (thrombus; po, 5 h): 7.3%
- inhibition in vivo at 100 mg/kg (male mice [1]): 4.2%

SMILES: CCCCCCc1ccc(C(=O)c2ccc(CCC)cc2)cc1 [Active ingredient No. 6]
- inhibition in vivo at 100 mg/kg (hind paws of male rats; [3]): 44.2%
- inhibition at 100 µM (platelet): 17.8%
- LD50 at 72 h (in vivo): 5000 mg/kg
- inhibition in vivo at 100 mg/kg (thrombus; [4]): 15.9%
- inhibition in vivo at 100 mg/kg (male mice [1]): 14.5%

SMILES: CCCCCCc1ccc(C(=O)c2ccc(CCCC)cc2)cc1 [Active ingredient No. 5]
- inhibition in vivo at 100 mg/kg (hind paws of male rats; [3]): 46.3%
- inhibition at 100 µM (platelet): 15.3%
- LD50 at 72 h (in vivo): 5000 mg/kg
- inhibition in vivo at 100 mg/kg (thrombus; [4]): 20.3%
- inhibition in vivo at 100 mg/kg (male mice [1]): 12.1%
